{"source": "patent US7709441B2", "about": "“Control of function of intracellular Ca ion” (Japan Science and Technology Agency, priority 2003, dated 2010)", "molecules": {"B1": {"name": "CARP: mouse carbonic anhydrase-related protein, 291 amino acids, SEQ ID NO:2 (protein, listed as Mus musculus)", "chain": "MADLSFIEDAVAFPEKEEDEEEEEEEGVEWGYEEGVEWGLVFPDANGEYQSPINLNSREARYDPSLLDVRLSPNYVVCRDCEVTNDGHTIQVILKSKSVLSGGPLPGGQEFELYEVRFHWGRENQRGSEHTVNFKAFPMELHLIHWNSTLFGSIDEAVGKPHGIAIIALFVQIGKEHVGLKAVTEILQDIQYKGKSKTIPCFNPNTLLPDPLLRDYWVYEGSLTIPPCSEGVTWILFRYPLTISQMQIEEFRRLRTHVKGVELVEGCDGILGDNFRPTQPLSDRVIRAAFQ"}, "B2": {"name": "GST-CARP: GST-fusion recombinant full-length CARP expressed in Escherichia coli (protein)", "chain": "B1 chain", "modifications": "left off: a dimerising Fc or GST", "notes": "GST-fusion recombinant full-length CARP expressed in Escherichia coli"}}, "key": {"[1]": {"biological_target": "T1, IP3R1 (Mus musculus, UniProt P11881)", "assay": "[3H]IP3 binding assay with purified IP3R1 in the presence or absence of CARP (Scatchard plot)", "conditions": "for Kd: mean of three separate experiments, read-out: dissociation constant (Kd±S.D.) of IP3 binding to IP3R1", "protocol": "The inventors conducted a binding assay using purified IP3R1, to evaluate effect of CARP on IP3-binding affinity to IP3R1. Purified IP3R1 was incubated with various concentration of [^3H] IP3 in the presence or absence of purified recombinant CARP, and analyzed by a Scatchard plot.\nIP3 binding to IP3R1 by IP3 in the presence (▪ in FIG. 6) and in the absence (● in FIG. 6) of CARP. In FIG. 6, the horizontal axis represents an amount of binding IP3 (pmol/mg), and the vertical axis represents an amount of binding IP3 divided by an amount of non-binding IP3 (pmol/mg/nM).\n[^3H]IP3 binding to IP3R1 was assayed by polyethylene glycol precipitation in the presence or absence of CARP in accordance with the method as reported previously (Maeda, N., Niinobe, M., et al, (1990), EMBO J.,9,61-67). 0.5 μg of purified IP3R1 was incubated with or without 10 μg of purified His-CARP in 50 μL of a solution containing 50 mM Tris-HCl, pH 8.0, 1 mM EDTA, 1 mM 2-mercaptoethanol, 9.6 nM [^3H] IP3 and different concentration of IP3, for 10 min at 4° C. Nonspecific binding was measured in the presence of 10 μM IP3."}, "[2]": {"test_system": "IP3R1", "conditions": "other tissues or isolated IP3R1; read-out: EC50 of IP3 for IP3-induced Ca2+ release; cited from earlier work"}, "[3]": {"test_system": "Purkinje cells", "conditions": "intact Purkinje cells; read-out: EC50 of IP3 for IP3-induced Ca2+ release; cited from earlier work"}, "[4]": {"biological_target": "T2, GST-EL (amino acids 1-2217 of mIP3R1) (Mus musculus, UniProt P11881)", "T2 construct": "(amino acids 1-2217 of mIP3R1) and has GST in its N terminus; made in house; host or cells: Sf9 cells (recombinant baculovirus)", "T2 sequence (P11881 1-2217, one chain of several)": "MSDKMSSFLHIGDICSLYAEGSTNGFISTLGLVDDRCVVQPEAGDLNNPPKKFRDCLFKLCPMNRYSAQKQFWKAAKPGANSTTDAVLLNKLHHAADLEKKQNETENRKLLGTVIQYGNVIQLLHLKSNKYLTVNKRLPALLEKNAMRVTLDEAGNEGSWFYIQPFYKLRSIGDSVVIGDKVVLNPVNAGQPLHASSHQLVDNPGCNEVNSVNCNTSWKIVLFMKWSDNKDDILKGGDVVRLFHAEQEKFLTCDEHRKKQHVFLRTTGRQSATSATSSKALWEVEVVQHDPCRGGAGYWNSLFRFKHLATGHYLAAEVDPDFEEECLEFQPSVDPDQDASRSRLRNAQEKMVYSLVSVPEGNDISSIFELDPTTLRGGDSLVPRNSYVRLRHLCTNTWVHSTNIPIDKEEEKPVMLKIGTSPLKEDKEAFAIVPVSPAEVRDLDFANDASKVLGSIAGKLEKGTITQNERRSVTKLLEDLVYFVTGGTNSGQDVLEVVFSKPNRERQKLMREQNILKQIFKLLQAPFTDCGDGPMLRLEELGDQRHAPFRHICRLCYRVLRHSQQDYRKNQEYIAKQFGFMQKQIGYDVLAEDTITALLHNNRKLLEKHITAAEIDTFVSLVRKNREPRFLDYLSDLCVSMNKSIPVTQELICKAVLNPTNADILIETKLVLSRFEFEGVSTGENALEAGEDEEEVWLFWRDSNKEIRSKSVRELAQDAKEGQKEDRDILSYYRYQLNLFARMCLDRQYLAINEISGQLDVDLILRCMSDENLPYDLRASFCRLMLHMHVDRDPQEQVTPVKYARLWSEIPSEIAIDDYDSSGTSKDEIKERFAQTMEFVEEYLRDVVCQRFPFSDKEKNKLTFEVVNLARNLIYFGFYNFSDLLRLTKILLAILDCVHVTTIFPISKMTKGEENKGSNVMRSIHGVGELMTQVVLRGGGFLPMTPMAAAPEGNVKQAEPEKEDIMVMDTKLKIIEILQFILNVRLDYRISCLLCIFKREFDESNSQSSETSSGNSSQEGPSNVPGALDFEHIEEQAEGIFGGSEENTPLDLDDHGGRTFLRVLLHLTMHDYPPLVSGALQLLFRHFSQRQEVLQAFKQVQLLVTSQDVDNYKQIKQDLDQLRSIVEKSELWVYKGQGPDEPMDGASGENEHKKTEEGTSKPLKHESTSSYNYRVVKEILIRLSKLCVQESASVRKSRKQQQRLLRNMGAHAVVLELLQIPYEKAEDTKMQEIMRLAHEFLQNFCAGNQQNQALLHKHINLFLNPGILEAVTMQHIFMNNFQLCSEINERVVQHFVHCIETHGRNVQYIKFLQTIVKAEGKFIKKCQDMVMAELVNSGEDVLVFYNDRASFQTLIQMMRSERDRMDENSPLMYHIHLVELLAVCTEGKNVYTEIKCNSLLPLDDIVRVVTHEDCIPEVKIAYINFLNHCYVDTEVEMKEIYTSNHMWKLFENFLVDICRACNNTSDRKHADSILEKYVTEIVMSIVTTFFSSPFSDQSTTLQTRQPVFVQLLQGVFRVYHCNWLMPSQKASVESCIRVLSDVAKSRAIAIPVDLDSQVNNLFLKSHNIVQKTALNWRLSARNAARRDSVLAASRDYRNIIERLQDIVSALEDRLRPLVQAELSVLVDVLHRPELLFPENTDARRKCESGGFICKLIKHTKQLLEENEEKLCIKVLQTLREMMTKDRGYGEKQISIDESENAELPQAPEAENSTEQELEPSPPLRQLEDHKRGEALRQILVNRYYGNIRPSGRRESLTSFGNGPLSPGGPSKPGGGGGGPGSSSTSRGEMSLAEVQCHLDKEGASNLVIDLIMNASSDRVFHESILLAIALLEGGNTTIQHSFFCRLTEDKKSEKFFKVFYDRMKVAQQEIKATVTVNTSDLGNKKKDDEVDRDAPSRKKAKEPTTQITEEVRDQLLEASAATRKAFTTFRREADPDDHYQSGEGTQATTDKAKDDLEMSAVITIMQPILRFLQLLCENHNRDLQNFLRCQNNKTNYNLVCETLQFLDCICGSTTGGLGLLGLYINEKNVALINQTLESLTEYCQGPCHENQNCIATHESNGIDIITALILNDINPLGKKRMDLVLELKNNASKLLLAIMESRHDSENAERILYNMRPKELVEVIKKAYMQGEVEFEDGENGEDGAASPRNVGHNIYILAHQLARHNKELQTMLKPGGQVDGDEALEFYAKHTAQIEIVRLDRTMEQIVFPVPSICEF", "assay": "Pull-down assay with GST-EL (soluble IP3R1), immunoblot with anti-CARP antibody", "type": "binding", "conditions": "mouse cerebellar cytosolic fraction; GST as control", "source_text": "(§1) Next, the inventors of the present application examined the interaction between CARP and IP3R1 by means of a pull-down method in order to obtain further evidence for the interaction by biochemical methods. The inventors first developed expression system in Sf9 cells, and made IP3R1 soluble by removing the channel domain. The soluble IP3R1, designated GST-EL, covers both the ligand binding domain and modulatory domain (amino acids 1-2217 of mIP3R1) and has GST in its N terminus. Mouse cerebellar cytosolic fraction was incubated with GST-EL or GST, and binding of CARP to the recombinant proteins was analyzed by immunoblotting with anti-CARP antibody. The results are shown in photographs of FIG. 4 which are substituted for drawings.\nAdult mouse cerebella were homogenized in 10 mM HEPES (pH 7.4), 320 mM Sucrose, 2 mM EDTA, 1 mM 2-mercaptoethanol, and protease inhibitors and the homogenate was centrifuged at 1,000×g for 10 min. The supernatant was centrifuged at 100,000×g for 60 min to obtain the cytosolic fraction (the supernatant) and the crude microsome (the pellet). The cytosolic fraction was added with 100 mM NaCl, and incubated with 20 μg of GST-EL or GST for 2 hours at 4° C. […] The eluted proteins were analyzed by Western blotting with anti-CARP antibody. […]"}, "[5]": {"conditions": "reported; cited from earlier work"}, "[6]": {"biological_target": "T1, IP3R1", "assay": "Pull-down assay with GST-CARP on detergent extract of mouse cerebellar microsome, immunoblot with anti-IP3R1 antibody", "type": "binding", "set-up": "The crude microsome was solubilized with 1% Triton X-100; from tissue; host or cells: adult mouse cerebellum, crude microsome solubilized with Triton X-100 (GST-CARP made in Escherichia coli)", "conditions": "GST as control", "source_text": "as §1\nThe crude microsome was solubilized with 1% Triton X-100, and dissolved in 50 mM HEPES (pH7.4), 2 mM EDTA, 1 mM 2-mercaptoethanol, and protease inhibitors for 30 min at 4° C., and centrifuged at 20,000×g for 30 min. The supernatants were processed for pull-down assay with 10 μg of GST-CARP or GST as described above, and bound proteins were subjected to immunoblot analysis with anti-IP3R1 antibody KM1112."}}, "note": "Where two headings read alike, the source gives them in different places."}
{"molecule": "O=P(O)(O)OC1C(O)C(O)C(OP(=O)(O)O)C(OP(=O)(O)O)C1O", "note": "(stereo not shown) [IP3, inositol-1,4,5-triphosphate]", "values": [{"measurement": "Bmax value of IP3 binding to IP3R1", "setting": "[1]; in the absence of CARP", "result": "1720 ± 234", "unit": "pmol/mg"}, {"measurement": "Kd", "setting": "[1]; in the absence of CARP", "result": "0.0182 ± 0.00458", "unit": "µM"}, {"measurement": "Bmax value of IP3 binding to IP3R1", "setting": "[1]; in the presence of CARP", "result": "1630 ± 108", "unit": "pmol/mg"}, {"measurement": "Kd", "setting": "[1]; in the presence of CARP", "result": "0.0335 ± 0.00207", "unit": "µM"}, {"measurement": "EC50", "setting": "[2]", "result": "0.1 to 1", "unit": "µM"}, {"measurement": "EC50", "setting": "[3]", "result": "≥ 10", "unit": "µM"}]}
{"molecule": "B1", "values": [{"measurement": "binding of CARP to GST-EL in pull-down", "setting": "[4]", "result": "specifically binds to GST-EL, but not to GST alone"}, {"measurement": "effect of CARP on binding of IP3 to IP3R1", "setting": "[1]; 10 μg purified His-CARP, 0.5 μg purified IP3R1", "result": "inhibits binding of IP3 to IP3R1 not by antagonistic action but by reducing the affinity"}, {"measurement": "carbonic anhydrase activity", "setting": "[5]", "result": "no carbonic anhydrase activity"}]}
{"molecule": "B2", "values": [{"measurement": "binding of IP3R1 to GST-CARP in pull-down", "setting": "[6]", "result": "IP3R1 interacted with GST-CARP but not with GST"}]}
